Laboratory results from ChEMBL document CHEMBL1201862, “PubChem BioAssay data set” (2004).
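Cells were grown in 96-well plates and exposed to each compound for 48 hours at five concentrations; endpoints were interpolated linearly between bracketing concentrations, or set to the highest concentration if not reached. Here, GI50 denotes the concentration required for 50% inhibition of growth.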 Activity calls are given as the source filed them. No stated cut-off is given here; in the data, active = GI50 up to about 1.1 µM and inactive = higher.

Legend:
Assay in all cases: NCI anticancer screen, dose series, 48 h
DU-145 = test system: DU-145
EKVX = test system: EKVX
M14 = test system: M14
SF-268 = test system: SF-268
HCT-116 = test system: HCT-116
SK-MEL-28 = test system: SK-MEL-28
COLO 205 = test system: COLO 205
Hs-578T = test system: Hs-578T
SNB-19 = test system: SNB-19
HOP-92 = test system: HOP-92
SNB-75 = test system: SNB-75
SF-295 = test system: SF-295
HCT-15 = test system: HCT-15
MDA-MB-231 = test system: MDA-MB-231
OVCAR-5 = test system: OVCAR-5
NCI-H460 = test system: NCI-H460
LOX IMVI = test system: LOX IMVI
PC-3 = test system: PC-3
TK-10 = test system: TK-10
KM12 = test system: KM12

Row | Structure (SMILES) | GI50 (DU-145) | GI50 (EKVX) | GI50 (M14) | GI50 (SF-268) | GI50 (HCT-116) | GI50 (SK-MEL-28) | GI50 (COLO 205) | GI50 (Hs-578T) | GI50 (SNB-19) | GI50 (HOP-92) | GI50 (SNB-75) | GI50 (SF-295) | GI50 (HCT-15) [µM] | GI50 (MDA-MB-231) | GI50 (OVCAR-5) | GI50 (NCI-H460) | GI50 (LOX IMVI) | GI50 (PC-3) | GI50 (TK-10) | GI50 (KM12)
1 | CC(C)(C)NCc1cc(Nc2ccnc3cc(Cl)ccc23)cc(-c2ccc(Cl)cc2)c1O | 4.53 µM (inactive) | 3.72 µM (inactive) | 2.18 µM (inactive) | 3.48 µM (inactive) | 2.08 µM (inactive) | 1.72 µM (inactive) | 1.81 µM (inactive) | 3.43 µM (inactive) | 4.44 µM (inactive) | 1.87 µM (inactive) | 2.02 µM (inactive) | 2.5 µM (inactive) | 2.44 | 3 µM (inactive) | 4.68 µM (inactive) | 2.03 µM (inactive) | 2.17 µM (inactive) | 1.99 µM (inactive) | 2.43 µM (inactive) | 3.5 µM (inactive)
2 | O=C(O)c1ccc(Nc2cnc3ccc(C(F)(F)F)cc3n2)cc1 | 23.9 µM (inactive) | 38.2 µM (inactive) | 38.6 µM (inactive) | 31 µM (inactive) | 20.1 µM (inactive) | 34 µM (inactive) | 17.2 µM (inactive) | 7.08 µM (inactive) | 18.8 µM (inactive) | 15.5 µM (inactive) | 11.7 µM (inactive) | 19.6 µM (inactive) | 18.7 | 19.5 µM (inactive) | 32.6 µM (inactive) | 28.1 µM (inactive) | 12.1 µM (inactive) | 17.7 µM (inactive) | 13.6 µM (inactive) | 16.5 µM (inactive)
3 | C/C(=N\NC(N)=S)c1ccccn1.OB(O)c1ccccc1 | 3.3 µM (inactive) | 4.69 µM (inactive) | 2.98 µM (inactive) | 2.67 µM (inactive) | 3.5 µM (inactive) | 9.23 µM (inactive) | 3.85 µM (inactive) | > 100 µM (inactive) | 10.5 µM (inactive) | 10.4 µM (inactive) | 12.9 µM (inactive) | 7.05 µM (inactive) | 2.84 | 7.16 µM (inactive) | 6.05 µM (inactive) | 3.78 µM (inactive) | 2.58 µM (inactive) | 4.15 µM (inactive) | 14 µM (inactive) | 7.45 µM (inactive)
4 | C/C(=N\NC(=S)NC(C)(C)C)c1nc2cccnc2[nH]1 | 2.43 µM (inactive) | 2.5 µM (inactive) | 3.33 µM (inactive) | 6.53 µM (inactive) | 3.59 µM (inactive) | 8.71 µM (inactive) | 2.26 µM (inactive) | 3.36 µM (inactive) | 6.93 µM (inactive) | 1.47 µM (inactive) | 16.3 µM (inactive) | 2.8 µM (inactive) | 2.47 | 3.55 µM (inactive) | 1.14 µM (inactive) | 3.03 µM (inactive) | 3.4 µM (inactive) | 7.93 µM (inactive) | 7.35 µM (inactive) | 4.8 µM (inactive)
5 | CCOC(=O)c1sc(=S)n(-c2ccc(Cl)cc2)c1-n1cc(-c2ccccc2)c(C#N)c1N | 6.81 µM (inactive) | 22.5 µM (inactive) | 53.1 µM (inactive) | 2.72 µM (inactive) | 26.1 µM (inactive) | 38.2 µM (inactive) | > 100 µM (inactive) | 4.19 µM (inactive) | 19 µM (inactive) | 15.4 µM (inactive) | 16 µM (inactive) | 13.3 µM (inactive) | 42.8 | 17.6 µM (inactive) | > 100 µM (inactive) | 22.3 µM (inactive) | 43.5 µM (inactive) | 11.8 µM (inactive) | 11.3 µM (inactive) | > 100 µM (inactive)
6 | O=C(OCC1CCCN2CCCCC12)c1ccncc1 (stereo not given) | > 100 µM (inactive) | > 100 µM (inactive) | > 100 µM (inactive) | > 100 µM (inactive) | > 100 µM (inactive) | > 100 µM (inactive) | > 100 µM (inactive) | > 100 µM (inactive) | > 100 µM (inactive) | > 100 µM (inactive) | > 100 µM (inactive) | > 100 µM (inactive) | > 100 | > 100 µM (inactive) | > 100 µM (inactive) | > 100 µM (inactive) | > 100 µM (inactive) | > 100 µM (inactive) | > 100 µM (inactive) | > 100 µM (inactive)
7 | CS(=O)(=O)C(=Cc1ccccc1Cl)S(C)(=O)=O | > 100 µM (inactive) | > 100 µM (inactive) | > 80.2 µM (inactive) | > 100 µM (inactive) | 31.1 µM (inactive) | > 100 µM (inactive) | > 100 µM (inactive) | > 91.2 µM (inactive) | > 100 µM (inactive) | > 100 µM (inactive) | > 100 µM (inactive) | > 46.5 µM (inactive) | > 100 | > 100 µM (inactive) | > 100 µM (inactive) | > 100 µM (inactive) | > 100 µM (inactive) | > 100 µM (inactive) | > 100 µM (inactive) | > 46.5 µM (inactive)
8 | CCOC(=O)C(C)c1nc2ccc(C(F)(F)F)cc2[nH]c1=O (stereo not given) | 69.2 µM (inactive) | 43.1 µM (inactive) | 80 µM (inactive) | 87.1 µM (inactive) | 72.8 µM (inactive) | > 100 µM (inactive) | > 100 µM (inactive) | 68.4 µM (inactive) | > 100 µM (inactive) | 43.9 µM (inactive) | 46.6 µM (inactive) | 45.5 µM (inactive) | 95.3 | 77.1 µM (inactive) | > 100 µM (inactive) | 84.9 µM (inactive) | 66.2 µM (inactive) | 36.9 µM (inactive) | 60.7 µM (inactive) | 71.9 µM (inactive)
9 | CN(C)P(=O)(Oc1ccc(CC(NC(=O)OCc2ccccc2)C(=O)OCc2ccccc2)cc1)N(C)C (stereo not given) | 15.7 µM (inactive) | 15.7 µM (inactive) | 13.4 µM (inactive) | 13.4 µM (inactive) | 15.9 µM (inactive) | 16.8 µM (inactive) | 20.9 µM (inactive) | 24.4 µM (inactive) | 20 µM (inactive) | 17.8 µM (inactive) | 17.2 µM (inactive) | 18.2 µM (inactive) | 17.4 | 17.5 µM (inactive) | 20 µM (inactive) | 21 µM (inactive) | 16 µM (inactive) | 15.2 µM (inactive) | 21.7 µM (inactive) | 20 µM (inactive)
10 | CNc1nc2c(C)ccc3nc(N(C)C)[nH]c3c-2n1 | 42.2 µM (inactive) | 30.1 µM (inactive) | 25.4 µM (inactive) | 32.4 µM (inactive) | 38.9 µM (inactive) | 52 µM (inactive) | 26.7 µM (inactive) | 97.9 µM (inactive) | 15.3 µM (inactive) | > 100 µM (inactive) | 41.8 µM (inactive) | 55.5 µM (inactive) | 23.9 | 43.6 µM (inactive) | 74.8 µM (inactive) | 26.2 µM (inactive) | 31.7 µM (inactive) | 46.9 µM (inactive) | > 100 µM (inactive) | 39.4 µM (inactive)
11 | COC(=O)CC1c2ccccc2N2C(=O)Cc3c([nH]c4ccccc34)C12 (stereo not given) | > 100 µM (inactive) | > 100 µM (inactive) | > 100 µM (inactive) | > 100 µM (inactive) | > 100 µM (inactive) | > 100 µM (inactive) | > 100 µM (inactive) | 25.4 µM (inactive) | > 100 µM (inactive) | 55.8 µM (inactive) | > 100 µM (inactive) | 7.93 µM (inactive) | > 100 | > 100 µM (inactive) | > 100 µM (inactive) | > 100 µM (inactive) | > 100 µM (inactive) | > 100 µM (inactive) | > 100 µM (inactive) | > 100 µM (inactive)
12 | O=C1c2c(F)c(F)c(F)c(F)c2SC2=NCCN12 | 17.3 µM (inactive) | 19.3 µM (inactive) | 4.53 µM (inactive) | 12.8 µM (inactive) | 2.15 µM (inactive) | 9.38 µM (inactive) | 7.23 µM (inactive) | 14.2 µM (inactive) | 15.3 µM (inactive) | 3.78 µM (inactive) | 16 µM (inactive) | 17.5 µM (inactive) | 2.81 | 8.75 µM (inactive) | 15.4 µM (inactive) | 6.53 µM (inactive) | 1.61 µM (inactive) | 13.6 µM (inactive) | 8.69 µM (inactive) | 12.6 µM (inactive)
13 | Nc1nc(N)c(N=O)c(OCC2CCCCC2)n1 | 7.45 µM (inactive) | 20.5 µM (inactive) | 8.47 µM (inactive) | 8.49 µM (inactive) | 9.12 µM (inactive) | 15.7 µM (inactive) | 12.3 µM (inactive) | 6.73 µM (inactive) | 26.8 µM (inactive) | 7.83 µM (inactive) | 5.01 µM (inactive) | 13 µM (inactive) | 5.5 | 5.02 µM (inactive) | 9.71 µM (inactive) | 6.17 µM (inactive) | 5.53 µM (inactive) | 6.41 µM (inactive) | 6.64 µM (inactive) | 18.7 µM (inactive)
14 | C=CCc1c(Cl)nc(Cl)nc1Cl | 2.01 µM (inactive) | 1.02 µM (active) | < 0.0156 µM (active) | 1.66 µM (inactive) | 0.352 µM (active) | 0.431 µM (active) | 0.195 µM (active) | 0.368 µM (active) | 0.859 µM (active) | 0.255 µM (active) | 1.08 µM (active) | 1.93 µM (inactive) | 0.0873 | 0.561 µM (active) | 0.678 µM (active) | 0.565 µM (active) | < 0.0115 µM (active) | 0.733 µM (active) | 1.08 µM (active) | 0.439 µM (active)
